Reference: ChEMBL document CHEMBL4765469, “2-((3,5-Dinitrobenzyl)thio)quinazolinones: Potent Antimycobacterial Agents Activated by Deazaflavin (F)-Dependent Nitroreductase (Ddn)” (J Med Chem, 2021)
Converted amounts (≈) assume the structure as drawn.

Legend:
[1] = tested on: Mycobacterium tuberculosis; assay: Ratio of MIC for antitubercular activity against Mycobacterium tuberculosis H37Rv ATCC 27294 grown under 7H9/ glucose liquid culture in presence of BSA to MIC for antitubercular activity against Mycobacterium tuberculosis H37Rv ATCC 27294 grown under 7H9/ glucose liquid culture; format: functional; settings: read-out: MIC>99
[2] = tested on: Mycobacterium tuberculosis; assay: Antitubercular activity against Mycobacterium tuberculosis 14A1 deficient in nitroreductase rv3547 assessed as inhibition of all visible growth grown under 7H9/ glucose liquid culture incubated for 7 to 14 days; format: functional; settings: time 7-14 day
[3] = tested on: Mycobacterium tuberculosis; assay: Antitubercular activity against Mycobacterium tuberculosis H37Rv ATCC 27294 grown under 7H9/ glucose liquid culture in presence of BSA assessed as inhibition of all visible growth incubated for 7 to 14 days; format: functional; settings: time 7-14 day
[4] = tested on: Mycobacterium tuberculosis; assay: Antitubercular activity against Mycobacterium tuberculosis H37Rv ATCC 27294 grown under Middlebrook 7H9 Broth assessed as inhibition of all visible growth incubated for 7 to 14 days; format: functional; settings: time 7-14 day
[5] = tested on: Mycobacterium tuberculosis; assay: Antitubercular activity against Mycobacterium tuberculosis H37Rv ATCC 27294 grown under GAST/Fe medium assessed as inhibition of all visible growth incubated for 7 to 14 days; format: functional; settings: time 7-14 day
[6] = Cytotoxicity in human MRC5 cells by neutral red uptake assay; format: cell-based
[7] = tested on: Mycobacterium tuberculosis; assay: Antitubercular activity against Mycobacterium tuberculosis H37Rv; format: functional
[8] = tested on: Mycobacterium tuberculosis; assay: Antitubercular activity against Mycobacterium tuberculosis H37Rv ATCC 27294 grown under 7H9/ADC assessed as inhibition of all visible growth incubated for 7 to 14 days; format: functional; settings: time 7-14 day
[9] = (§1) Inhibition of Mycobacterium tuberculosis thymidylate kinase in presence of ATP, dTMP, NADH and phosphoenol pyruvate by spectrophotometric assay
[10] = Genotoxicity in Salmonella typhimurium TA98 up to 349 uM incubated for 48 hrs in absence of rat liver S9 fraction by Ames test; format: toxicity; settings: salmonella enterica subsp. enterica serovar typhimurium, s9, 48 h
[11] = tested on: Mycobacterium tuberculosis; assay: as §1

Row | SMILES | MIC99 [4] [µM] | CC50 [6] [µM] | other results
1 | CN1CCN(c2ccc3nc(SCc4cc([N+](=O)[O-])cc([N+](=O)[O-])c4)[nH]c(=O)c3c2)CC1 | 9.4 (≈ 4.29 µg/mL) | 49 | MIC ratio, with BSA / without BSA [1]: 1 µM; MIC99 [2]: 37 µM (≈ 16.9 µg/mL); MIC99 [3]: 9.4 µM; MIC99 [5]: 9.4 µM (≈ 4.29 µg/mL)
2 | O=c1[nH]c(SCc2cc([N+](=O)[O-])cc([N+](=O)[O-])c2)nc2ncccc12 | ≥ 50 | > 64 | 
3 | O=c1[nH]c(SCc2ccc([N+](=O)[O-])o2)nc2ccccc12 | > 50 | 35 | 
4 | CCOC(=O)C1=C(NC(=O)c2c(F)c(F)c(F)c(F)c2F)OC2CN(CC)CCC12 (stereo unspecified) |  |  | MIC [7]: 0.69 µM
5 | CN(C)c1ccc2nc(SCc3cc([N+](=O)[O-])cc([N+](=O)[O-])c3)[nH]c(=O)c2c1 | > 50 | 14 | 
6 | O=c1[nH]c(SCc2ccccc2)nc2ccccc12 | 12.5 (≈ 3.35 µg/mL) | > 64 | MIC ratio, with BSA / without BSA [1]: > 4 µM; MIC99 [8]: > 50 µM; MIC99 [3]: > 50 µM; MIC99 [5]: 19 µM (≈ 5.1 µg/mL)
7 | O=c1[nH]c([S+]([O-])Cc2cc([N+](=O)[O-])cc([N+](=O)[O-])c2)nc2ccccc12 (stereo unspecified) | 50 (≈ 18.7 µg/mL) | > 64 | IC50 [9]: 217 µM
8 | Cc1ccc(CSc2nc(O)c3ccccc3n2)cc1 | > 50 | > 64 | 
9 | O=c1[nH]c(SCc2ccc([N+](=O)[O-])cc2[N+](=O)[O-])nc2ccccc12 | > 50 | > 64 | 
10 | CSc1nc(-c2cccc(Br)c2)c(C#N)c(=O)[nH]1 | 25 (≈ 8.05 µg/mL) | > 64 | IC50 [9]: 82 µM
11 | CC1CCN(Cc2c(O)ccc3oc4c5ccccc5oc(=O)c4c23)CC1 |  |  | MIC [7]: 0.125 µg/mL
12 | O=c1[nH]c(SCc2c([N+](=O)[O-])cccc2[N+](=O)[O-])nc2ccccc12 | > 50 | > 64 | 
13 | COc1cccc(CSc2nc3ccccc3c(=O)[nH]2)c1 | 0.78 (≈ 0.233 µg/mL) | > 64 | MIC ratio, with BSA / without BSA [1]: > 64 µM; MIC99 [8]: > 50 µM; MIC99 [3]: > 50 µM; MIC99 [5]: 50 µM (≈ 14.9 µg/mL)
14 | O=c1[nH]c(SCc2cc([N+](=O)[O-])cc(C(F)(F)F)c2)nc2ccccc12 | > 50 | > 64 | 
15 | O=c1[nH]c(SCc2ccc(Cl)c(Cl)c2)nc2ccccc12 | > 50 | > 64 | 
16 | O=c1[nH]c(SCc2cccs2)nc2ccccc12 | > 50 | > 64 | 
17 | COc1ccccc1CSc1nc2ccccc2c(=O)[nH]1 | > 50 |  | 
18 | O=c1[nH]c(SCc2cc([N+](=O)[O-])cc([N+](=O)[O-])c2)nc2cccc(Cl)c12 | ≥ 50 | > 64 | 
19 | O=c1[nH]c(SCc2cc([N+](=O)[O-])cc([N+](=O)[O-])c2)nc2ccc(F)cc12 | 1.2 (≈ 0.452 µg/mL) | > 64 | MIC ratio, with BSA / without BSA [1]: 52 µM; MIC99 [2]: 6.25 µM (≈ 2.35 µg/mL); MIC99 [3]: 6.25 µM; MIC99 [5]: 1.2 µM (≈ 0.452 µg/mL)
20 | O=[N+]([O-])c1ccc2c(c1)Cc1ccccc1-2 [2-NITROFLUORENE] |  |  | Activity [10]: Toxic
21 | O=c1[nH]c(SCc2ccc([N+](=O)[O-])s2)nc2ccccc12 | 350 (≈ 112 µg/mL) | > 64 | 
22 | NNC(=O)c1ccncc1 |  |  | MIC>99 [11]: 0.15 µM
23 | O=c1[nH]c(SCc2cc([N+](=O)[O-])cc([N+](=O)[O-])c2)nc2ccncc12 | > 50 | > 64 | 
24 | O=c1[nH]c(SCc2ccccc2[N+](=O)[O-])nc2ccccc12 | 12.5 (≈ 3.92 µg/mL) | > 64 | MIC ratio, with BSA / without BSA [1]: > 4 µM; MIC99 [8]: > 50 µM; MIC99 [3]: > 50 µM; MIC99 [5]: 25 µM (≈ 7.83 µg/mL)

Row | SMILES | MIC99 [4] [µM] | CC50 [6] [µM] | other results
25 | O=c1[nH]c(SCc2cc([N+](=O)[O-])cc([N+](=O)[O-])c2)nc2cc(Cl)ccc12 | 2.3 (≈ 0.903 µg/mL) | > 64 | MIC ratio, with BSA / without BSA [1]: 10.8 µM; MIC99 [8]: 25 µM (≈ 9.82 µg/mL); MIC99 [3]: 25 µM; MIC99 [5]: 0.72 µM (≈ 0.283 µg/mL)
26 | N#Cc1c(-c2cccc(Br)c2)nc(SCc2cc([N+](=O)[O-])cc([N+](=O)[O-])c2)[nH]c1=O | > 64 | > 64 | IC50 [9]: 4.3 µM
27 | O=c1[nH]c(SCc2cc([N+](=O)[O-])cc([N+](=O)[O-])c2)nc2ccc(Cl)cc12 | 0.78 (≈ 0.306 µg/mL) | > 64 | MIC ratio, with BSA / without BSA [1]: 4 µM; MIC99 [8]: 4.7 µM (≈ 1.85 µg/mL); MIC99 [3]: 3.13 µM; MIC99 [5]: 0.2 µM (≈ 0.0786 µg/mL)
28 | O=c1[nH]c(SCc2cc([N+](=O)[O-])cc([N+](=O)[O-])c2)nc2cccnc12 | 19 (≈ 6.83 µg/mL) | > 64 | MIC ratio, with BSA / without BSA [1]: > 2.6 µM; MIC99 [2]: 50 µM (≈ 18 µg/mL); MIC99 [3]: > 50 µM; MIC99 [5]: 12.5 µM (≈ 4.49 µg/mL)
29 | O=c1[nH]c(SCc2cc([N+](=O)[O-])cc([N+](=O)[O-])c2)nc2ccc(Br)cc12 | 3.13 (≈ 1.37 µg/mL) | > 64 | MIC ratio, with BSA / without BSA [1]: 11.8 µM; MIC99 [2]: > 50 µM; MIC99 [3]: 37 µM; MIC99 [5]: 3.13 µM (≈ 1.37 µg/mL)
30 | O=c1[nH]c(SCc2ccc([N+](=O)[O-])cc2)nc2ccccc12 | ≥ 50 | > 64 | 
31 | O=c1[nH]c(SCc2cc([N+](=O)[O-])cc([N+](=O)[O-])c2)nc2ccc(N3CCOCC3)cc12 | 4.7 (≈ 2.08 µg/mL) | > 64 | MIC ratio, with BSA / without BSA [1]: 0.66 µM; MIC99 [2]: 19 µM (≈ 8.43 µg/mL); MIC99 [3]: 3.13 µM; MIC99 [5]: 3.13 µM (≈ 1.39 µg/mL)
32 | CCOC(=O)C1=C(NC(=O)c2c(F)c(F)c(F)c(F)c2F)OC(C(N)=O)C1C (stereo unspecified) |  |  | MIC [7]: 0.5 µM
33 | Oc1nc(SCc2cccc(Cl)c2)nc2ccccc12 | 3.13 (≈ 0.948 µg/mL) | > 64 | MIC ratio, with BSA / without BSA [1]: > 16 µM; MIC99 [8]: > 50 µM; MIC99 [3]: > 50 µM; MIC99 [5]: 19 µM (≈ 5.75 µg/mL)
34 | CSc1cc(-c2ccccc2)nc(O)c1C#N |  |  | MIC [7]: > 64 µM
35 | O=c1[nH]c(SCc2ccc(-c3ccccc3)cc2)nc2ccccc12 | > 50 | > 64 | 
36 | O=c1[nH]c(SCc2cc([N+](=O)[O-])cc([N+](=O)[O-])c2)nc2c(Cl)cccc12 | > 50 | > 64 | 
37 | O=C(CSc1nc2ccccc2c(=O)[nH]1)NC1CCCCC1 |  |  | MIC [7]: 0.3 µM
38 | O=C(CSc1nc2c(F)cccc2c(=O)[nH]1)NC1CCC(F)(F)CC1 |  |  | MIC [7]: 0.09 µM
39 | Cc1ccc2nc(SCc3cc([N+](=O)[O-])cc([N+](=O)[O-])c3)[nH]c(=O)c2c1 | 1.56 (≈ 0.581 µg/mL) | > 64 | MIC ratio, with BSA / without BSA [1]: 4 µM; MIC99 [2]: > 50 µM; MIC99 [3]: 6.25 µM; MIC99 [5]: 1.56 µM (≈ 0.581 µg/mL)
40 | CCOC(=O)c1c(-c2ccccc2)oc2ccc(O)c(CN3CCC(C)CC3)c12 |  |  | MIC [7]: 1 µg/mL
41 | Cn1c(SCc2cc([N+](=O)[O-])cc([N+](=O)[O-])c2)nc2ccccc2c1=O | 1.56 (≈ 0.581 µg/mL) | > 64 | MIC ratio, with BSA / without BSA [1]: 2 µM; MIC99 [8]: 3.13 µM (≈ 1.17 µg/mL); MIC99 [3]: 3.13 µM; MIC99 [5]: 0.39 µM (≈ 0.145 µg/mL)
42 | Oc1nc(SCc2ccc(Cl)cc2)nc2ccccc12 | > 50 | > 64 | 
43 | O=c1[nH]c(SCc2cccc([N+](=O)[O-])c2)nc2ccccc12 | > 50 | > 64 | 
44 | COc1ccc(CSc2nc3ccccc3c(=O)[nH]2)cc1 | > 50 | > 64 | 
45 | O=c1[nH]c(SCc2cc([N+](=O)[O-])cc([N+](=O)[O-])c2)nc2ccc(N3CCCCC3)cc12 | > 50 | > 64 | 
46 | O=c1[nH]c(SCc2cc([N+](=O)[O-])cc([N+](=O)[O-])c2)nc2cnccc12 | > 50 | > 64 | 
47 | N#Cc1c(-c2cccc(Br)c2)nc(SCc2ccccc2)[nH]c1=O | 25 (≈ 9.96 µg/mL) | > 36 | IC50 [9]: 49 µM
48 | O=c1[nH]c(SCc2ccccc2Cl)nc2ccccc12 | 2.3 (≈ 0.696 µg/mL) | > 65 | MIC ratio, with BSA / without BSA [1]: > 21.7 µM; MIC99 [8]: > 50 µM; MIC99 [3]: > 50 µM; MIC99 [5]: 37 µM (≈ 11.2 µg/mL)
